In the NIST ThermoML archive (doi:10.1016/j.jct.2009.04.004):

Test: molar heat capacity at constant pressure
Conditions: 101.33 kPa, Crystal, Small sample (50 mg) DSC

[Na+].[O]=[Re](=[O])(=[O])[O-] [sodium perrhenate]
Conditions | molar heat capacity at constant pressure [J/K/mol]
298.15 K | 118.8
323.15 K | 122.2
348.15 K | 125.5
373.15 K | 128.9
398.15 K | 131.8
423.15 K | 135.1
448.15 K | 137.2
473.15 K | 139.7
498.15 K | 142.3
523.15 K | 144.8
548.15 K | 146.9
573.15 K | 148.1
598.15 K | 149.4
